Experimental findings from US11001615B2, “Mutated tau protein fragment and use thereof” (ADEL INC., priority 2016, dated 2021) are described below.

Ends that are not written are not given here.

Type in all cases: in vivo
The subject of experiment [1] is Tau-P301L dementia mice. In words: ELISA using plasma: antibody production against modified tau protein fragments. To be noted: ELISA using plasma after final administration; fragment with KLH and aluminum adjuvant, IP. As to the method: (§1) JNPL3 mice expressing Tau-P301L mutant gene were purchased from Taconic, and back-crossed with C57bl/6 mice for five generations in the experimental animal room of the Asan Institute for Life Sciences. Then, the mice were raised under a specific pathogen free (SPE) condition. For active immunization, the mice were administered, for six months starting from three months after birth at intervals of two weeks, two weeks, four weeks, four weeks, five weeks, four weeks, and one week in this order, the four modified tau protein fragments prepared in Preparation Example 1 together with keyhole limpet hemocyanin (KLH) as a carrier and an aluminum adjuvant. At this time, administration was carried out through intraperitoneal injection (IP injection). The dementia mice which were actively immunized by administration of the K280-ac fragment were designated as Tau-P301L-K280-ac.
In order to identify whether antibodies against the four modified tau protein fragments prepared in Preparation Example 1 were produced, the respective modified tau protein fragments or the full-length tau protein was finally administered, and then ELISA was performed using plasma.

Experiment [2] concerns Tau-P301L dementia mice. The experiment in a line: Rota-rod test. The following applies: 5th day. The method, then: as §1, with “Tau-P301L-K280-ac. […]” for “Tau-P301L-K280-ac.”
Specifically, the test was intended to measure how long the mice are able to stay on a rotating rotor. The mice were trained for 4 days and a motor ability thereof was measured on the 5th day. The training was repeated three times a day, during which the time to stay on the rotor and the final rpm were measured while increasing the rpm of the rotor. On the 5th day, the experiment was conducted under the same condition except that a result was measured only once without repeating (FIGS. 14 and 15).

The test system of experiment [3] is Tau-P301L dementia mice. The experiment in a line: Nest building test. The following applies: Tau-P301L about 50% decrease versus normal mice. The method, then:
as §1
Behavioral experiments were conducted to identify changes in motor ability and cognitive function of the Tau-P301L dementia mice produced in Preparation Example 2. A nest building test which can identify a multimodal brain function of the mice was performed.
Specifically, two-thirds of the litter in a cage where the mice are raised was removed and four layers of sterile cotton (5 cm×5 cm) were placed in the cage. One mouse was allowed to enter one cage. The next morning, a degree of completion of the nest was analyzed.

Experiment [4] has as its system Tau-P301L dementia mice. In words: Western blotting of brain tissues for GCP-II. To be noted: brain tissue. The method, then:
as §1
Glutamate carboxypeptidase-2 ([…], folate hydrolase 1) is a NAAG peptidase that degrades NAAG. There is a possibility that an increase in GCP-II is a cause for decreased NAAG. Thus, brain tissues of the Tau-P301L-K280-ac dementia mice, the P301L-K280-ac dementia mice, and the normal mice produced in Preparation Example 2 were extracted and western blotting was performed.
In general terms: In western blotting, separated proteins are transferred to a membrane and probed.

The subject of experiment [5] is Tau-P301L dementia mice. In words: Y-maze experiment. The following applies: Tau-P301L 50% decrease in measurement time versus normal mice. The method, then:
as §1
In addition, a Y-maze experiment was performed to identify restoration of cognitive function. Specifically, A, B, and C zones were set in a Y-shaped box, and the mice were allowed to freely move for 5 minutes in a state where the B zone was blocked.

Experiment [6] has as its system Tau-P301L dementia mice. In words: Immunohistochemical staining of brain tissues for tau proteins. The following applies: brain tissue. As to the method: as §1
In order to identify a tauopathy-alleviating effect following administration of the K280-ac fragment, brain tissues of the Tau-P301L-K280-ac dementia mice, the P301L-K280-ac dementia mice, and the normal mice produced in Preparation Example 2 were extracted, and western blotting and immunohistochemical staining were performed.

Experiment [7] concerns Tau-P301L dementia mice. In words: qPCR of brain tissues for inflammation-related genes. To be noted: brain tissue, compared with non-immunized dementia mice. The method, then: as §1
In order to identify an inflammation-improving effect following administration of the K280-ac fragment, brain tissues of the Tau-P301L-K280-ac dementia mice, the P301L-K280-ac dementia mice, and the normal mice produced in Preparation Example 2 were extracted, and qPCR was performed for inflammation-related genes.
A general note: In qPCR the cycle at which signal appears reflects the starting amount.

The subject of experiment [8] is Tau-P301L dementia mice. The experiment in a line: Grip strength test. The method, then: as §1
A grip strength test was performed to identify muscle strength of the mice. […] At this time, an iron bundle that weighs 40 g was used for the iron bundle. The mice produced in Preparation Example 2 were held by the tail end, and the forefeet of the mice were caused to be placed on the 40 g iron bundle so that the mice can grab the iron bundle. […] The time until the mice missed the iron bundle was measured and comparison was made for the respective mice.

The test system of experiment [9] is Tau-P301L dementia mice. The experiment in a line: Western blotting of cerebral cortex fractions (tau aggregation-mitigating effect). To be noted: cerebral cortex fractions (soluble or insoluble). The method, then: as §1
In order to identify a tau aggregation-mitigating effect following administration of the K280-ac fragment, western blotting was performed with the cerebral cortices of the Tau-P301L-K280-ac dementia mice, the P301L-K280-ac dementia mice, and the normal mice produced in Preparation Example 2.

In experiment [10] the test system is Tau-P301L dementia mice. In words: Forced swimming test. The following applies: second day, 5 minutes. As to the method:
as §1
A forced swimming test was conducted to identify a depression-ameliorating effect in the Tau-P301L dementia mice produced in Preparation Example 2. The experiment was conducted for a total of 2 days. […] An index to swim in water (Swimming/S), an index to climb up along the beaker wall (Climbing/C), and an index to float in water without any movement (Immobility/I) were respectively analyzed.

In experiment [11] the test system is Tau-P301L dementia mice. The experiment in a line: Novel object recognition experiment. To be noted: Tau-P301L 50% decrease versus normal mice. As to the method: as §1
In addition, a memory experiment was performed with novel object recognition. […] Two identical objects were placed in the white box, and then the time spent staying around each object was measured while allowing the mice to make exploration for 5 minutes. 4 hours later, one of the objects installed was replaced with another model, and movement of the mice and the time spent staying around the object were measured for 5 minutes.

As for “Val-Gln-Ile-Ile-Asn-Lys-Lys-Leu-Asp-Leu-Ser-Asn (VQIINK(Ac)KLDLSN) [K280-ac]”, the “antibodies against the fragment produced” value in [1] is on record as “well produced”. Further, in experiment [2], the rota-rod rpm entry is recorded as “increased to levels which correspond to those for the normal mice” and the rota-rod time entry is on record as “increased to levels which correspond to those for the normal mice”. Also, the building score result in experiment [3] is listed as “restored to a level which is similar to that in the normal mice”. Further, the “expression level of GCP-II” value in experiment [4] was “decreased expression level of GCP-II which corresponds to that in the normal mice”. Moreover, the “cognitive function in the Y-maze” value in [5] is on record as “restored”. In addition, in experiment [6], the acetylated tau proteins result was “decreased” and the phosphorylated tau proteins result is listed as “decreased”. In experiment [7], the IFN-γ gene result is on record as “decrease”, the IL-4 gene result is listed as “decrease”, the IL-12 gene entry is “increase” and the IL-22 gene result was “decrease”. Moreover, the “measured time for grab strength” value in [8] (40 g iron bundle, normal mice 10 or shorter, Tau-P301L 5 or shorter) is listed as “about 12 seconds”. For the same substance, the “grip strength, change versus controls” value in [8] (actively immunized Tau-P301L dementia mice) is listed as “restored to that of the normal mice”. In experiment [9], the acetylated tau proteins result is listed as “decreased”, the entire tau protein result was “decreased” and the phosphorylated tau proteins entry was “decreased”. In addition, the “depression-ameliorating effect (immobility, swimming, climbing)” value in experiment [10] was “depression-ameliorating effect is exhibited”. The “time spent staying around the novel object” value in experiment [11] was “increased to a level which corresponds to that in the normal mice”.
